Active and inactive are the calls of the source. The calls are words filed in the database; no cut-off is given here.
Legend:
NCI-H292 = assay: Cytotoxicity against human NCI-H292 cells after 72 hrs by MTT assay; format: functional, cell-based; conditions: NCI-H292, 72 h
Tubulin (Bos taurus) [1] = molecular target: T1, Tubulin (Bos taurus) (UniProt Q6B856+Q862L2+Q862F3); assay: Stabilization of bovine tubulin polymerization at 10 uM after 20 mins by spectrophotometer analysis; format: protein assay
[2] = Cytotoxicity against human PC3 cells after 72 hrs by MTT assay; format: functional, cell-based; conditions: PC-3, 72 h
HT-29 = assay: Cytotoxicity against human HT-29 cells after 72 hrs by MTT assay; format: functional, cell-based; conditions: HT-29, 72 h
[3] = Cytotoxicity against human MDA468 cells after 72 hrs by MTT assay; format: functional, cell-based; conditions: MDA-MB-468, 72 h
Tubulin (Bos taurus) [4] = molecular target: T1, Tubulin (Bos taurus); assay: Induction of bovine tubulin polymerization at 5 uM after 20 mins by spectrophotometer analysis; format: protein assay

CC(=O)O[C@H]1C(=O)[C@@]2(C)[C@H]([C@H](OC(=O)c3ccccc3)[C@]3(O)C[C@H](OC(=O)[C@H](O)[C@@H](NC(=O)c4ccccc4)c4ccccc4)C(C)=C1C3(C)C)[C@]1(OC(C)=O)CO[C@@H]1C[C@@H]2O [PACLITAXEL]
IC50 (NCI-H292): 0.006 µM | Activity (Tubulin (Bos taurus) [1]): Active

Cc1c(CC(=O)NCCN(C)C)c2cc(NC(=O)c3ccc(Br)cc3)ccc2n1S(=O)(=O)c1ccccc1
IC50 (NCI-H292): 55.5 µM

Cc1c(CC(=O)NCCN(C)C)c2cc(NC(=O)c3cccc(OCc4ccccc4)c3)ccc2n1S(=O)(=O)c1ccccc1
IC50 (NCI-H292): 19.3 µM

CC(=O)Nc1ccc2c(c1)c(CC(=O)NCCN(C)C)c(C)n2S(=O)(=O)c1ccccc1
IC50 (NCI-H292): 113 µM

Cc1c(CC(=O)NCCN(C)C)c2cc(NC(=O)C(C)C)ccc2n1S(=O)(=O)c1ccccc1
IC50 (NCI-H292): 30.9 µM

Cc1c(CC(=O)NCCN(C)C)c2cc(NC(=O)OC(C)(C)C)ccc2n1S(=O)(=O)c1ccccc1
IC50 (NCI-H292): 25.9 µM

Cc1c(CC(=O)NCCN(C)C)c2cc(NC(=O)c3ccccc3)ccc2n1C(=O)c1ccc(Br)cc1
IC50 (NCI-H292): 13.4 µM | IC50 [2]: 13.2 µM | IC50 (HT-29): 6.72 µM | IC50 [3]: 7.67 µM

CCCC(=O)Nc1ccc2c(c1)c(CC(=O)NCCN(C)C)c(C)n2S(=O)(=O)c1ccccc1
IC50 (NCI-H292): 33.5 µM

COc1ccc(C(=O)Nc2ccc3c(c2)c(CC(=O)NCCN(C)C)c(C)n3C(=O)c2ccc(Br)cc2)cc1
IC50 (NCI-H292): 13.9 µM | IC50 [2]: 10.2 µM | IC50 (HT-29): 7.19 µM | IC50 [3]: 8.16 µM

Cc1c(CC(=O)NCCN(C)C)c2cc(N)ccc2n1C(=O)c1ccc(Br)cc1
IC50 (NCI-H292): 31.5 µM

Cc1c(CC(=O)NCCN(C)C)c2cc(NC(=O)c3ccc(C#N)cc3)ccc2n1C(=O)c1ccc(Br)cc1
IC50 (NCI-H292): 20.8 µM

Cc1c(CC(=O)NCCN(C)C)c2cc(NC(=O)c3cccc(OCc4ccccc4)c3)ccc2n1C(=O)c1ccc(Br)cc1
IC50 (NCI-H292): 1.73 µM | IC50 [2]: 8.8 µM | IC50 (HT-29): 1.48 µM | IC50 [3]: 2.37 µM | Activity (Tubulin (Bos taurus) [4]): Active | Activity (Tubulin (Bos taurus) [1]): Active

CCC(=O)Nc1ccc2c(c1)c(CC(=O)NCCN(C)C)c(C)n2S(=O)(=O)c1ccccc1
IC50 (NCI-H292): 38.5 µM

CC(=O)Nc1ccc2c(c1)c(CC(=O)NCCN(C)C)c(C)n2C(=O)c1ccc(Br)cc1
IC50 (NCI-H292): 67.6 µM

CCCC(=O)Nc1ccc2c(c1)c(CC(=O)NCCN(C)C)c(C)n2C(=O)c1ccc(Br)cc1
IC50 (NCI-H292): 39.6 µM

CCC(=O)Nc1ccc2c(c1)c(CC(=O)NCCN(C)C)c(C)n2C(=O)c1ccc(Br)cc1
IC50 (NCI-H292): 21.8 µM

Cc1c(CC(=O)NCCN(C)C)c2cc(NC(=O)OC(C)(C)C)ccc2n1C(=O)c1ccc(Br)cc1
IC50 (NCI-H292): 14.9 µM

Cc1c(CC(=O)NCCN(C)C)c2cc(N)ccc2n1S(=O)(=O)c1ccccc1
IC50 (NCI-H292): 64.2 µM
